{"source": "paper PMC11330417", "about": "“Insights into the transglucosylation activity of α-glucosidase from Schwanniomyces occidentalis” (Applied Microbiology and Biotechnology, 2024)", "target": "T1, α-glucosidase GAM1p (Schwanniomyces occidentalis, UniProt Q401B1, S845A)", "T1 construct": "gene GAM1; full-length gene with own signal peptide of 22 residues (960 aa precursor), no tag (native stop codon), AOX1 promoter vector pIB4, secreted by Komagataella phaffii GS115; glycosylated, about 143 kDa; concentrated on 50-kDa membrane", "T1 sequence (Q401B1 entry or part of it S845A)": "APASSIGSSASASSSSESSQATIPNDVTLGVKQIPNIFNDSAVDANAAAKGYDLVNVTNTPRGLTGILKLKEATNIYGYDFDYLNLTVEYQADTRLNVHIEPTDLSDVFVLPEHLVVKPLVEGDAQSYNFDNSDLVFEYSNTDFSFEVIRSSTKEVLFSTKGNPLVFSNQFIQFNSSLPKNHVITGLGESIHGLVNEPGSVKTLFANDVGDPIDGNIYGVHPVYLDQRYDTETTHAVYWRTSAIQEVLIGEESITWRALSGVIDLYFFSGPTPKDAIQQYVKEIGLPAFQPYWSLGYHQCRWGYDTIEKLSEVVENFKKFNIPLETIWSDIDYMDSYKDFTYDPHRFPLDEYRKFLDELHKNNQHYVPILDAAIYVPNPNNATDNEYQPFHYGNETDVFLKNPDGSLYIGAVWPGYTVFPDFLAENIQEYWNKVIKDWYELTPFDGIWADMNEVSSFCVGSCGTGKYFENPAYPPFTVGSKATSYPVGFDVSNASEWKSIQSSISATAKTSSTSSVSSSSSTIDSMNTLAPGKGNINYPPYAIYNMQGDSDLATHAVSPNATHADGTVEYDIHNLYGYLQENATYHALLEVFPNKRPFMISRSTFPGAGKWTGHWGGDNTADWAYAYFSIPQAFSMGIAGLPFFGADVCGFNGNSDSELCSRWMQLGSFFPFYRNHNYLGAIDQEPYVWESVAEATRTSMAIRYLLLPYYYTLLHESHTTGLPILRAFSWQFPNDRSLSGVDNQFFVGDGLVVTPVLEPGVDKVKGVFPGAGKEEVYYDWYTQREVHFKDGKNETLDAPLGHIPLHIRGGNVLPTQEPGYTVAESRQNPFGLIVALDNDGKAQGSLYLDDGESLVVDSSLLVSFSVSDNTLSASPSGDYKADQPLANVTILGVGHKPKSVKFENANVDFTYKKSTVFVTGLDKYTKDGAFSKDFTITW", "assay": "HPLC-PAD, MS and NMR of glucosylated products", "assay_type": "biochemical", "settings": "glucosyl acceptor; 20 mM piceid, 300 g/L maltose as donor, 20% DMSO, sodium acetate pH 4.5, 37 °C", "data": [{"molecule": "OC[C@H]1O[C@@H](Oc2cc(O)cc(/C=C/c3ccc(O)cc3)c2)[C@H](O)[C@@H](O)[C@@H]1O", "note": "(mixture of isomers) [piceid]", "values": [{"measurement": "HPLC-PAD, MS and NMR of glucosylated products", "result": "GAM1p was only able to glycosylate piceid (polydatin)"}]}]}
